Measured values published in patent US20100035824A1, “Synergistic Pharmaceutical Composition” (priority 2005, published 2010).

Tested on: collagen-induced thrombocyte aggregation of human blood plasma which is rich of platelets
Assay: Collagen-induced thrombocyte aggregation in platelet-rich human plasma (aggregometry)
Description: While the other conditions of the experiment remained the same as in Example 1, the collagen-induced thrombocyte aggregation was measured with different concentrations of genistein and glutamic acid dipeptide.

| Compound | maximum thrombocyte aggregation (Example 3: 50 uM genistein, absence of glutamic acid dipeptide) | maximum thrombocyte aggregation (Example 4: 50 uM genistein, 0 uM alanine dipeptide, control about 70%) | maximum thrombocyte aggregation (genistein 100 uM, collagen-induced, control without genistein about 65%) | maximum thrombocyte aggregation (genistein 150 uM, collagen-induced, control about 65%) | maximum thrombocyte aggregation (genistein 200 uM, collagen-induced, control about 65%) | thrombocyte aggregation (glutamic acid dipeptide 100 μmolar, without genistein, control 65%) |
| --- | --- | --- | --- | --- | --- | --- |
| O=c1c(-c2ccc(O)cc2)coc2cc(O)cc(O)c12 [genistein, Genistein] | 25% | about 60% | about 35% | about 23% | about 5% | – |
| glutamic acid dipeptide | – | – | – | – | – | about 60% |
